Experimental data from ChEMBL document CHEMBL5665443, “Enzyme Inhibitor Single Concentration assay results for EUbOPEN Chemogenomics Library” (2024).

Legend:
[1] = target: Uracil-DNA glycosylase (Homo sapiens) (UniProt P13051); details: Hit No;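 note: UNG excision on a quenched double-stranded DNA oligo probe, with APE1 added for strand incision and turnover, read as fluorescence at 594 nm as strands separate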
Description: Inhibition of UNG by quantifying inhibition of UNG-mediated cleavage and dissociation of quenched duplex DNA oligonucleotides, measured as fluorescence at 594 nm. To generate a functional strand incision and increase turn-over this assay is coupled to APE1.

[2] = target: G/T mismatch-specific thymine DNA glycosylase (Homo sapiens) (UniProt Q13569); details: Hit No;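 note: human TDG cleavage of quenched duplex DNA oligonucleotides coupled to APE1, strand release read as fluorescence at 594 nm, inhibition of TDG activity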
G/T mismatch-specific thymine DNA glycosylase (Homo sapiens), sequence (Q13569 whole entry): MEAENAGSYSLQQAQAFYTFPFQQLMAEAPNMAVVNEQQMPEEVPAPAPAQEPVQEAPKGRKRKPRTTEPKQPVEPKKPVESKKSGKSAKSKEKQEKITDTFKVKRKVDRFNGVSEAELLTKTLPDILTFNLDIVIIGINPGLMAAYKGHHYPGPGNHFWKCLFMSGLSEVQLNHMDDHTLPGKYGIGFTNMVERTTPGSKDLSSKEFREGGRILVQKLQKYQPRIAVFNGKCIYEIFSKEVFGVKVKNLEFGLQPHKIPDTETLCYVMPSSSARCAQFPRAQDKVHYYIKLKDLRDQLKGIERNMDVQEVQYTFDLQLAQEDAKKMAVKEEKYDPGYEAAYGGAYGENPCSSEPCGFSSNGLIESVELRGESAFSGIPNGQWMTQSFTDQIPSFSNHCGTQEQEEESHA
Description: Inhibition of TDG by quantifying inhibition of TDG-mediated cleavage and dissociation of quenched duplex DNA oligonucleotides, measured as fluorescence at 594 nm. To generate a functional strand incision and increase turn-over this assay is coupled to APE1.

[3] = target: T1, Endonuclease III-like protein 1 (Homo sapiens) (UniProt P78549); details: Hit No;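 note: enzyme assay tracking NTHL1 cutting and release of a quenched double-stranded DNA oligo substrate, read as fluorescence at 594 nm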
T1 sequence (whole entry): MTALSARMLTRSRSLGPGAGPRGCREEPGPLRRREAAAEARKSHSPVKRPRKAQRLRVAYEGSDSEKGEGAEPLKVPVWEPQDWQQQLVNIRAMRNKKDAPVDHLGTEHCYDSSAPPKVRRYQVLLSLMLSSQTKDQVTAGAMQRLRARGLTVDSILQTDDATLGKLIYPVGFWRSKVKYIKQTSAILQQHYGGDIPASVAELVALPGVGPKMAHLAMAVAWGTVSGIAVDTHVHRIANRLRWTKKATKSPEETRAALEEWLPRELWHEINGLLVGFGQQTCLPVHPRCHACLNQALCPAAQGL
Description: Inhibition of NTHL1 by quantifying inhibition of NTHL1-mediated cleavage and dissociation of quenched duplex DNA oligonucleotides, measured as fluorescence at 594 nm.

[4] = target: T2, Endonuclease 8-like 2 (Homo sapiens) (UniProt Q969S2); details: Hit No;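 note: fluorescence at 594 nm reports NEIL2 cutting and release of a quenched double-stranded DNA oligo substrate, reduced signal read as inhibition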
T2 sequence (whole entry): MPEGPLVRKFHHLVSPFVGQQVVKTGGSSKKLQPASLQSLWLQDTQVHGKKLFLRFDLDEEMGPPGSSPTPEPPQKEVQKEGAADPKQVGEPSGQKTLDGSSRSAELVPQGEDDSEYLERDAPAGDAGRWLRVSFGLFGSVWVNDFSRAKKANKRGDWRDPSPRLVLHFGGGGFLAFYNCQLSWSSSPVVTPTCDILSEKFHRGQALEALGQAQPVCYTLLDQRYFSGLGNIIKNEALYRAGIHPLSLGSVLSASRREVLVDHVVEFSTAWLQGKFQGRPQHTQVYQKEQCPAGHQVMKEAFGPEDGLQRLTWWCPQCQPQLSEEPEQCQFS
Description: Inhibition of NEIL2 by quantifying inhibition of NEIL2-mediated cleavage and dissociation of quenched duplex DNA oligonucleotides, measured as fluorescence at 594 nm.

[5] = target: Endonuclease 8-like 1 (Homo sapiens) (UniProt Q96FI4); details: Hit No;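 note: fluorescence at 594 nm from quenched duplex DNA oligonucleotides released by NEIL1 cleavage and strand separation, reported as reduction of this enzyme activity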
Endonuclease 8-like 1 (Homo sapiens), sequence (Q96FI4 whole entry): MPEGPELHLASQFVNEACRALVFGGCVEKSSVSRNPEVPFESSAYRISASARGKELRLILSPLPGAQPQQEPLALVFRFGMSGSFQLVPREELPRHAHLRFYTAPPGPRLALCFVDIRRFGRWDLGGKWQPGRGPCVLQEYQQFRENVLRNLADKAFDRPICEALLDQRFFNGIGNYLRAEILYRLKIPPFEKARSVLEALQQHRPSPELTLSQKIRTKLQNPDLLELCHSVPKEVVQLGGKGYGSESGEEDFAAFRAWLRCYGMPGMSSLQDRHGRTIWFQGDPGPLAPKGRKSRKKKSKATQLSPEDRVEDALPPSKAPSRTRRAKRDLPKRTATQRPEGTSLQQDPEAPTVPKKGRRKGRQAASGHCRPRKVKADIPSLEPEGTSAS
Description: Inhibition of NEIL1 by quantifying inhibition of NEIL1-mediated cleavage and dissociation of quenched duplex DNA oligonucleotides, measured as fluorescence at 594 nm.

[6] = target: N-glycosylase/DNA lyase (Homo sapiens) (UniProt O15527); details: Compound Concentration 10.0 uM, Hit No;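 note: OGG1 cleavage of a quenched duplex DNA oligonucleotide, coupled to APE1 for strand incision, read as fluorescence at 594 nm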
N-glycosylase/DNA lyase (Homo sapiens), sequence (O15527 whole entry): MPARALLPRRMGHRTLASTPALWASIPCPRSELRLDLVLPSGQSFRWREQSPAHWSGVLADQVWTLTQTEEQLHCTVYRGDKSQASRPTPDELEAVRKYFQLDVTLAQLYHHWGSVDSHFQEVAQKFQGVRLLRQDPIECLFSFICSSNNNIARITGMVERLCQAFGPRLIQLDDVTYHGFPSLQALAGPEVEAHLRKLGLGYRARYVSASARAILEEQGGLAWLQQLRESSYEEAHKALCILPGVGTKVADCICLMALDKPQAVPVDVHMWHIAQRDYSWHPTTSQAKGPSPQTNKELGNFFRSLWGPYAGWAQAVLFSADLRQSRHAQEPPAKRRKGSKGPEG
Description: Inhibition of OGG1 by quantifying inhibition of OGG1-mediated cleavage and dissociation of quenched duplex DNA oligonucleotides, measured as fluorescence at 594 nm. To generate a functional strand incision and increase turn-over this assay is coupled to APE1.

[7] = target: T3, Single-strand selective monofunctional uracil DNA glycosylase (Homo sapiens) (UniProt Q53HV7); details: Hit No;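 note: enzymatic SMUG1 assay coupled with APE1, reading fluorescence at 594 nm released when a quenched double-stranded DNA oligonucleotide substrate is cleaved and separated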
T3 sequence (whole entry): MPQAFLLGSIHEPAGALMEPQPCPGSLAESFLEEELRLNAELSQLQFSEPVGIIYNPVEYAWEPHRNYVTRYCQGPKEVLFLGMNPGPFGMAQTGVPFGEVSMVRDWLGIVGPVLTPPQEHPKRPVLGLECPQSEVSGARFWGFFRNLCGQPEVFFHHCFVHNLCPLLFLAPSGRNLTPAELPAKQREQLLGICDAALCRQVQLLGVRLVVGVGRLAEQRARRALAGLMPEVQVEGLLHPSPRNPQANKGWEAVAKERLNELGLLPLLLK
Description: Inhibition of SMUG1 by quantifying inhibition of SMUG1-mediated cleavage and dissociation of quenched duplex DNA oligonucleotides, measured as fluorescence at 594 nm. To generate a functional strand incision and increase turn-over this assay is coupled to APE1.

Uracil-DNA glycosylase (Homo sapiens), sequence (P13051 whole entry): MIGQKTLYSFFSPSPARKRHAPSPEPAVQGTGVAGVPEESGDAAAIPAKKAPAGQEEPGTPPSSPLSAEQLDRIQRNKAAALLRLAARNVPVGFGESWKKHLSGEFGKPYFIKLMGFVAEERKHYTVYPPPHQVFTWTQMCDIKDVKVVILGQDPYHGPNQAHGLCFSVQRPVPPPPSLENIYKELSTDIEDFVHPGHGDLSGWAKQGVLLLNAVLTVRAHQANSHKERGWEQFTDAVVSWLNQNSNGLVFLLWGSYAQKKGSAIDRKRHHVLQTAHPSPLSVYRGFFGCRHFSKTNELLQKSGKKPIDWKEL

Row | Structure (SMILES) | inhibition ([1]; Compound Concentration 10.0 uM) | inhibition ([2]; Compound Concentration 10.0 uM) | inhibition ([3]; Compound Concentration 10.0 uM) | inhibition ([4]; Compound Concentration 10.0 uM) | inhibition ([5]; Compound Concentration 10.0 uM) | inhibition [6] | inhibition ([7]; Compound Concentration 10.0 uM) | inhibition ([1]; Compound Concentration 1.0 uM) | inhibition ([2]; Compound Concentration 1.0 uM) | inhibition ([7]; Compound Concentration 1.0 uM) | inhibition ([3]; Compound Concentration 1.0 uM) | inhibition ([4]; Compound Concentration 1.0 uM) | inhibition ([5]; Compound Concentration 1.0 uM)
1 | N#Cc1cc2c(OCC(O)CN3CCN(C(c4ccccc4)c4ccccc4)CC3)cccc2[nH]1 (racemic) | -9.6% | -7.45% | -4.67% | -1.98% | 7.06% | -4.64% | – | – | – | – | – | – | –
2 | CC[N+](CC)(CC)CCOc1ccc(/C=C/c2ccccc2)cc1 | 1.13% | – | 0.568% | 0.669% | 3.86% | – | 8.74% | – | – | – | – | – | –
3 | Cc1ccccc1N1CCN(S(=O)(=O)C[C@]23CC[C@H](C[C@@H]2NC(=O)[C@@H](N)CCS(C)(=O)=O)C3(C)C)CC1 | -9.38% | -7.58% | 20.2% | -8.47% | 10.9% | -1.3% | – | – | – | – | – | – | –
4 | N=C(N)NCCC[C@H](NC(=O)C12CC3CC(CC(C3)C1)C2)C(=O)N[C@@H](Cc1ccccc1)C(N)=O | -7.87% | – | 13.8% | -4.94% | 4.9% | – | -6% | – | – | – | – | – | –
5 | Cc1c(-c2cc(-c3ccccc3Cl)no2)cnn1C1CCNCC1 | -3.3% | -8.91% | 12.9% | -0.35% | 5.79% | – | -1.2% | – | – | – | – | – | –
6 | FC(F)c1nc2ccccc2n1-c1nc(N2CCOCC2)nc(N2CCOCC2)n1 | -3.48% | 32.9% | 7.06% | – | – | 3.08% | 27% | – | – | – | – | – | –
7 | CN(c1ncccc1CNc1ccnc(-c2cc3cc(Cl)ccc3[nH]2)n1)S(C)(=O)=O | 1.54% | 37.5% | -4.79% | 1.85% | 8.2% | – | 14.4% | – | – | – | – | – | –
8 | O=C1COc2nccc(-c3ccccc3F)c2CN1Cc1cc(C(F)(F)F)cc(C(F)(F)F)c1 | – | – | 2.66% | -2.98% | 2.76% | -4.66% | -3.96% | – | – | – | – | – | –
9 | C[C@@H](NCCCc1cccc(C(F)(F)F)c1)c1cccc2ccccc12 | – | -8.6% | -5.41% | 13.5% | 1.28% | -4.37% | 8.59% | – | – | – | – | – | –
10 | Cc1ccc(F)cc1C(=O)Nc1ccc(C(=O)N2Cc3cccn3Cc3ccccc32)c(Cl)c1 | – | -0.756% | 18.1% | -4.48% | -2.72% | -6.45% | -2.41% | – | – | – | – | – | –
11 | CCOc1cc2ncc(C#N)c(Nc3ccc(OCc4cccc(F)c4)c(Cl)c3)c2cc1NC(=O)/C=C/CN(C)C | – | – | – | – | – | – | – | 3.4% | 25.8% | 11.5% | -5.49% | – | –
12 | CCCCCCCCc1ccc(CCC(N)(CO)CO)cc1 | – | 26.4% | -6.87% | -1.98% | 4.69% | -9.6% | 1.32% | – | – | – | – | – | –
13 | Cc1csc(NC(=O)c2cc(F)cc(Oc3cncnc3)c2)n1 | – | 5.04% | 4.86% | 3.51% | -4.5% | -8.23% | 3.26% | – | – | – | – | – | –
14 | CC(C)(N)C(=O)N[C@H](COCc1ccccc1)C(=O)N1CCC2(CC1)CN(S(C)(=O)=O)c1ccccc12 | -9.48% | 6.18% | -1.74% | 7% | 7.36% | – | -6.91% | – | – | – | – | – | –
15 | CN1C(=O)[C@@H](NC(=O)c2cc3ccccc3[nH]2)N=C(c2ccccc2)c2ccccc21 | -5.09% | 4.69% | 22.4% | – | – | -4.56% | -0.954% | – | – | – | – | – | –
16 | CCN1CCC[C@H]1CNC(=O)c1c(OC)ccc(Br)c1OC | – | -0.58% | -4.67% | -5.97% | -9.25% | -3.96% | -6.28% | – | – | – | – | – | –

Row | Structure (SMILES) | inhibition ([1]; Compound Concentration 10.0 uM) | inhibition ([2]; Compound Concentration 10.0 uM) | inhibition ([3]; Compound Concentration 10.0 uM) | inhibition ([4]; Compound Concentration 10.0 uM) | inhibition ([5]; Compound Concentration 10.0 uM) | inhibition [6] | inhibition ([7]; Compound Concentration 10.0 uM) | inhibition ([1]; Compound Concentration 1.0 uM) | inhibition ([2]; Compound Concentration 1.0 uM) | inhibition ([7]; Compound Concentration 1.0 uM) | inhibition ([3]; Compound Concentration 1.0 uM) | inhibition ([4]; Compound Concentration 1.0 uM) | inhibition ([5]; Compound Concentration 1.0 uM)
17 | c1ccc2oc(-c3csc(C4CCN(Cc5nc6ncccc6[nH]5)CC4)n3)cc2c1 | -7.49% | 76.8% | -1.29% | 1.3% | -4.83% | 2.49% | – | – | – | – | – | – | –
18 | CC(C)CCC[C@@H](C)[C@H]1CC[C@H]2[C@@H]3[C@H](O)C=C4C[C@@H](O)CC[C@]4(C)[C@H]3CC[C@]12C | – | -0.558% | -1.74% | -6.22% | 8.25% | -2.82% | -3.67% | – | – | – | – | – | –
19 | Cc1cn2cc(CC(=O)N3CCC4(CC3)CN(Cc3ccc(-n5nccn5)cc3Cl)C4)nc2s1 | – | -1.26% | 6.32% | – | -6.88% | -2.88% | -0.227% | – | – | – | – | – | –
20 | CN1CCN(c2nc(N)c3ccccc3n2)CC1 | -6.76% | -3.58% | 17.1% | 16% | 6.68% | -6.52% | – | – | – | – | – | – | –
21 | CCN1CCN(c2ccc(Nc3cc(N(C)C(=O)Nc4c(Cl)c(OC)cc(OC)c4Cl)ncn3)cc2)CC1 | – | – | – | – | – | – | – | 1.97% | 47.5% | 20.5% | 1.48% | -7.84% | -0.787%
22 | CCCCCCCCCCCCC/C=C/[C@@H](O)[C@@H](N)COP(=O)(O)O | -6.96% | -7.17% | -7.6% | 6.5% | 4.69% | 2.2% | – | – | – | – | – | – | –
23 | Cc1c(C(=O)Nc2ccc(N3C[C@@H](C)O[C@@H](C)C3)nc2)cccc1-c1ccc(OC(F)(F)F)cc1 | – | -4.8% | -3.21% | 7.5% | -5.39% | -6.4% | -0.0333% | – | – | – | – | – | –
24 | C=CCN1C[C@H](C)N([C@H](c2ccc(C(=O)N(CC)CC)cc2)c2cccc(O)c2)C[C@H]1C | – | 4.87% | 1.92% | 6.25% | -6.58% | -6.71% | 10.6% | – | – | – | – | – | –
25 | CC(F)(F)CN1CCOc2c(nn(-c3ccccc3Cl)c2-c2ccc(Cl)cc2)C1=O | -4.73% | -6.66% | 14.4% | 4.76% | -3.02% | 1.85% | – | – | – | – | – | – | –
26 | COc1cc(C)c(Sc2cnc(NC(=O)c3ccc(CNC(C)C(C)(C)C)cc3)s2)cc1C(=O)N1CCN(C(C)=O)CC1 (stereo not drawn) | 4.76% | 37.6% | -3.4% | – | -0.787% | – | 19.5% | – | – | – | – | – | –
27 | c1cc(CN2CCCNCCNCCCNCC2)ccc1CN1CCCNCCNCCCNCC1 | – | 2.03% | 13.7% | – | – | -2.11% | 1.47% | – | – | – | – | – | –
28 | Cc1nc2ccc(Oc3ccc(F)cc3)cc2c(=O)n1C[C@H]1CCCN(C(C)C)C1 | -4.71% | -8.54% | -3.56% | – | 6.38% | – | -4.48% | – | – | – | – | – | –
29 | CCCn1c(=O)c2[nH]c(C3CCCC3)nc2n(CCC)c1=O | – | 6.69% | -3.21% | 1.01% | -2.28% | -9.82% | -9.38% | – | – | – | – | – | –
30 | Cc1c(C(=O)Nc2cccc(C(F)(F)F)c2)cc(-c2ccccc2)n1CCCN1CCOCC1 | -3.84% | – | -7.69% | – | 0.00926% | -6.32% | 6.03% | – | – | – | – | – | –
31 | O=C(NCc1ccc(F)cc1)N1CCN2C(=O)OC(c3ccccc3)(c3ccccc3)C2C1 (stereo not drawn) | – | 6.86% | -0.275% | 9.75% | -1.09% | 1.66% | 10.1% | – | – | – | – | – | –
